Data reported in patent US8415351B2 (priority 2007, dated 2013).

Assays:
[1] = target: T1, HCV polymerase 1A (Δ21 NS5B, H77) (Hepatitis C virus genotype 1a, UniProt P27958); assay: biochemical; conditions: IC50 1a
T1 construct: 20 to 50 nM Δ21 NS5B
Method in brief: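 Radiometric assay with Δ21 NS5B (H77): 20 μM CTP, 20 μM ATP, 1 μM ^3H-UTP, 5 nM template RNA, 2–4 h at room temperature. RNA precipitated with spermine, filter-captured and counted. IC50 from non-linear fit of retained cpm vs inhibitor concentration (tight-binding equation).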

[2] = target: T2, HCV polymerase 1B (Δ21 NS5B, BK) (Hepatitis C virus genotype 1b, UniProt P26663); assay: biochemical
T2 construct: 20 to 50 nM Δ21 NS5B
T2 sequence (P26663 2420-2989, stated change not applied): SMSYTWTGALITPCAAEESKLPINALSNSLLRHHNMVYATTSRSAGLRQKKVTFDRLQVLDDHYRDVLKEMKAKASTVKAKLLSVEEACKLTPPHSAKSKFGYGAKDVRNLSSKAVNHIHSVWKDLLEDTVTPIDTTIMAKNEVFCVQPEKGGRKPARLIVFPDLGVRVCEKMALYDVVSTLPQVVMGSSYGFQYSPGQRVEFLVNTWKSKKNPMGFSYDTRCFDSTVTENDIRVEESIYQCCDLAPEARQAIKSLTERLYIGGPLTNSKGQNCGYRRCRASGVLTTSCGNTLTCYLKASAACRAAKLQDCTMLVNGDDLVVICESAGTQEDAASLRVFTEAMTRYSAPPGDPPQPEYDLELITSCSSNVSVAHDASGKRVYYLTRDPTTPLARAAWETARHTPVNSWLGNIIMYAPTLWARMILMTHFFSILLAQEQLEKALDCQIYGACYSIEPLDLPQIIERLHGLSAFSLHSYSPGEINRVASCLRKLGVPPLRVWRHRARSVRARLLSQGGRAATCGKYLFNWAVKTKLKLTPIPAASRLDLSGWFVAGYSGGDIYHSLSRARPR
Method in brief: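 Δ21 NS5B (genotype 1b, BK […]) preincubated 15 min RT with inhibitor, 2 mM MnCl2, pH 7.4, 60–125 μM GTP; started with 20 μM CTP/ATP, 1 μM 3H-UTP, 5 nM template RNA, run 2–4 h RT. Spermine-precipitated RNA filter-captured, scintillation counted; IC50 from tight-binding (Morrison) fit.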

[3] = system: genotype 1a-H77 subgenomic replicon cell line; assay: microbe, parasite or virus in culture; type: cell-based, HCV; conditions: Hepatitis C virus, read-out: EC50 1a
[4] = system: genotype 1b-Con1 subgenomic replicon cell line; assay: microbe, parasite or virus in culture; type: cell-based, HCV; conditions: Hepatitis C virus, read-out: EC50 1b

T1 sequence (P27958 2421-2990, stated change not applied): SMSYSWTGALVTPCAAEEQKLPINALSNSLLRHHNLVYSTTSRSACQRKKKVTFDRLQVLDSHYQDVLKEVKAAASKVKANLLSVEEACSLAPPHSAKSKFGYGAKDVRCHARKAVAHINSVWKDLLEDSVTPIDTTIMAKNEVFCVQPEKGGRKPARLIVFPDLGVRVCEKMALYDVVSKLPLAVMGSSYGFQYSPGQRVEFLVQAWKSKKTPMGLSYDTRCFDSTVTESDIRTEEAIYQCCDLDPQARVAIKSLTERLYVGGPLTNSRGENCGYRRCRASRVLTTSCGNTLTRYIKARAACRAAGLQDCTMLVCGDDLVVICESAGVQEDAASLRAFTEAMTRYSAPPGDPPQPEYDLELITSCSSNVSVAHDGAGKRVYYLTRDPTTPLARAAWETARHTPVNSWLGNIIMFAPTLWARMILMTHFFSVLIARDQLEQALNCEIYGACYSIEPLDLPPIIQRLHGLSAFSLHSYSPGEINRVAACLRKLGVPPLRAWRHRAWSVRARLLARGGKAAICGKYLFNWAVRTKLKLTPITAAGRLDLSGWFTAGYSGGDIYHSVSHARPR

| SMILES | IC50 [1] [µM] | IC50 [2] [µM] | EC50 [3] [µM] | EC50 [4] [µM] |
| --- | --- | --- | --- | --- |
| CC(C)(C)c1cc(-n2ccc(=O)[nH]c2=O)cc(C(=O)Nc2ccc(NS(C)(=O)=O)cc2)c1O [IB-L3-1.2, 3-tert-butyl-5-(2,4-dioxo-3,4-dihydropyrimidin-1(2H)-yl)-2-hydroxy-N-(4-(methylsulfonamide)phenyl)benzamide] | 0.01 to 0.1 | < 0.01 | 0.1 to 1 | 0.01 to 0.1 |
| COc1c(-c2ccc(/C(C)=N/NS(C)(=O)=O)cc2)cc(N2CCC(=O)NC2=O)cc1C(C)(C)C [IA-L0-1.2, (E)-N′-(1-(3′-tert-butyl-5′-(2,4-dioxotetrahydropyrimidin-1(2H)-yl)-2′-methoxybiphenyl-4-yl)ethylidene)methanesulfonohydrazide] | 0.01 to 0.1 | 0.01 to 0.1 | 0.1 to 1 | 0.01 to 0.1 |
| COc1c(C(=O)Nc2ccc(NS(=O)(=O)CC(C)C)cc2)cc(N2CCC(=O)NC2=O)cc1C(C)(C)C [IA-L3-1.52, 3-tert-butyl-5-(2,4-dioxotetrahydropyrimidin-1(2H)-yl)-2-methoxy-N-(4-(2-methylpropyl-sulfonamido)phenyl)benzamide] | 0.1 to 1 | 0.1 to 1 | > 1 | 0.1 to 1 |
| CCCC(=O)N(c1ccc(NC(=O)c2cc(N3CCC(=O)NC3=O)cc(C(C)(C)C)c2OC)cc1)S(C)(=O)=O [IA-L3-1.71, 3-tert-butyl-5-(2,4-dioxotetrahydropyrimidin-1(2H)-yl)-2-methoxy-N-(4-(N-(methylsulfonyl)butyramido)phenyl)benzamide] | 0.1 to 1 | > 1 | 0.1 to 1 | 0.01 to 0.1 |
| CC(C)(C)c1cc(NC(=O)c2ccc(NS(C)(=O)=O)cc2)cc(N2CCC(=O)NC2=O)c1 [IA-L4-1.1, N-(3-tert-butyl-5-(2,4-dioxotetrahydropyrimidin-1(2H)-yl)phenyl)-4-(methylsulfonamido) benzamide] | 0.1 to 1 | 0.1 to 1 | > 1 | > 1 |
| Cc1cc(=O)[nH]c(=O)n1-c1cc(C(=O)Nc2ccc(NS(C)(=O)=O)cc2)c(O)c(C(C)(C)C)c1 [IB-L3-1.4, 3-tert-butyl-2-hydroxy-5-(6-methyl-2,4-dioxo-3,4-dihydropyrimidin-1(2H)-yl)-N-(4-(methylsulfonamido)phenyl)benzamide] | 0.1 to 1 | 0.01 to 0.1 | > 1 | > 1 |
| COc1c(C(=O)Nc2ccc(NS(C)(=O)=O)cc2)cc(-n2ccc(=O)[nH]c2=O)cc1C(C)(C)C [IB-L3-1.1, 3-tert-butyl-5-(2,4-dioxo-3,4-dihydropyrimidin-1(2H)-yl)-2-methoxy-N-(4-(methylsulfon amido)phenyl)benzamide] | 0.01 to 0.1 | 0.01 to 0.1 | 0.1 to 1 | 0.01 to 0.1 |
| COc1c(-c2ccc(/C(C)=N/NS(C)(=O)=O)cc2)cc(-n2ccc(=O)[nH]c2=O)cc1C(C)(C)C [IB-L0-1.5, (E)-N′-(1-(3′-tert-butyl-5′-(2,4-dioxo-3,4-dihydropyrimidin-1(2H)-yl)-2′-methoxybiphenyl-4-yl)ethylidene)methanesulfonohydrazide] | 0.01 to 0.1 | 0.01 to 0.1 | 0.01 to 0.1 | 0.01 to 0.1 |
| CC(C)(C)c1cc(N2CCC(=O)NC2=O)cc(C(=O)Nc2ccc(OS(C)(=O)=O)cc2)c1O [IA-L3-1.19, 4-(3-tert-butyl-5-(2,4-dioxotetrahydropyrimidin-1(2H)-yl)-2-hydroxybenzamido)phenyl methanesulfonate] | 0.1 to 1 | 0.01 to 0.1 | > 1 | > 1 |
| COc1c(-c2ccc3c(CNS(C)(=O)=O)csc3c2)cc(-n2ccc(=O)[nH]c2=O)cc1C(C)(C)C [IB-L0-2.11, N-((6-(3-tert-butyl-5-(2,4-dioxo-3,4-dihydropyrimidin-1(2H)-yl)-2-methoxyphenyl)benzo[b]thiophen-3-yl)methyl)methanesulfonamide] | < 0.01 | < 0.01 | 0.01 to 0.1 | < 0.01 |
| COc1c(-c2ccoc2)cc(-n2ccc(=O)[nH]c2=O)cc1-c1ccc2c(c1)CC=C2CNS(C)(=O)=O [IB-L0-2.67, N-((6-(5-(2,4-dioxo-3,4-dihydropyrimidin-1(2H)-yl)-3-(furan-3-yl)-2-methoxyphenyl)-1H-inden-3-yl)methyl)methanesulfonamide] | 0.01 to 0.1 | 0.01 to 0.1 | 0.1 to 1 | 0.01 to 0.1 |
| COc1c(C#Cc2ccc(NS(C)(=O)=O)c3ccccc23)cc(N2CCC(=O)NC2=O)cc1C(C)(C)C [IA-L2-2.1, N-(4-((3-tert-butyl-5-(2,4-dioxotetrahydropyrimidin-1(2H)-yl)-2-methoxyphenyl)ethynyl)-naphthalen-1-yl)methanesulfonamide] | 0.01 to 0.1 | 0.01 to 0.1 | 0.1 to 1 | 0.1 to 1 |
| CC(C)(C)c1cc(N2CCC(=O)NC2=O)cc(C(=O)Nc2ccc(NS(=O)(=O)Cc3ccccc3)cc2)c1O [IA-L3-1.12, 3-tert-butyl-5-(2,4-dioxotetrahydropyrimidin-1(2H)-yl)-2-hydroxy-N-(4-(phenylmethyl-sulfonamido)phenyl)benzamide] | 0.1 to 1 | 0.01 to 0.1 | > 1 | > 1 |
| CCc1cc(N2CCC(=O)NC2=O)cc(C(=O)Nc2ccc(NS(C)(=O)=O)cc2)c1O [IA-L3-1.113, 5-(2,4-dioxotetrahydropyrimidin-1(2H)-yl)-3-ethyl-2-hydroxy-N-(4-(methylsulfonamido)phenyl)benzamide] | > 1 | > 1 | > 1 | > 1 |
| COc1c(C#Cc2ccc(NS(C)(=O)=O)cc2O)cc(-n2ccc(=O)[nH]c2=O)cc1C(C)(C)C [IB-L2-1.6, N-(4-((3-tert-butyl-5-(2,4-dioxo-3,4-dihydropyrimidin-1(2H)-yl)-2-methoxyphenyl)ethynyl)-3-hydroxyphenyl)fmethanesulfonamide] | < 0.01 | 0.01 to 0.1 | 0.01 to 0.1 | < 0.01 |
| COc1c(C#Cc2cccc(NS(C)(=O)=O)c2)cc(N2CCC(=O)NC2=O)cc1C(C)(C)C [IA-L2-1.7, N-(3-((3-tert-butyl-5-(2,4-dioxotetrahydropyrimidin-1(2H)-yl)-2-methoxyphenyl)ethynyl)phenyl)methanesulfonamide] | 0.01 to 0.1 | 0.01 to 0.1 | > 1 | 0.1 to 1 |
| COc1c(C(=O)Nc2ccc(OCC#N)cc2)cc(N2CCC(=O)NC2=O)cc1C(C)(C)C [IA-L3-1.38, 3-tert-butyl-N-(4-(cyanomethoxy)phenyl)-5-(2,4-dioxotetrahydropyrimidin-1(2H)-yl)-2-methoxybenzamide] | > 1 | 0.1 to 1 | > 1 | > 1 |
| COc1c(C(=O)Nc2cc(CN(C)S(C)(=O)=O)cs2)cc(N2CCC(=O)NC2=O)cc1C(C)(C)C [IA-L3-1.97, 3-tert-butyl-5-(2,4-dioxotetrahydropyrimidin-1(2H)-yl)-2-methoxy-N-(4-((N-methylmethylsulfonamido)methyl)thiophen-2-yl)benzamide] | > 1 | > 1 | > 1 | > 1 |
| COc1c(C(=O)Nc2ccc(OS(C)(=O)=O)cc2)cc(N2CCC(=O)NC2=O)cc1C(C)(C)C [IA-L3-1.41, 4-(3-tert-butyl-5-(2,4-dioxotetrahydropyrimidin-1(2H)-yl)-2-methoxybenzamido)phenyl methanesulfonate] | 0.1 to 1 | > 1 | > 1 | 0.1 to 1 |
| COc1c(-c2ncc(-c3cccc(NS(C)(=O)=O)c3)o2)cc(N2CCC(=O)NC2=O)cc1C(C)(C)C [IA-L0-1.9, N-(3-(2-(3-tert-butyl-5-(2,4-dioxotetrahydropyrimidin-1(2H)-yl)-2-methoxyphenyl)oxazol-5-yl)phenyl)methanesulfonamide] | 0.01 to 0.1 | 0.1 to 1 | > 1 | 0.1 to 1 |
| CC(C)(C)c1cc(C#Cc2ccc(NS(C)(=O)=O)cc2)cc(N2CCC(=O)NC2=O)c1 [IA-L2-1.1, N-(4-((3-tert-butyl-5-(2,4-dioxotetrahydropyrimidin-1(2H)-yl)phenyl)ethynyl)phenyl)-methanesulfonamide] | 0.01 to 0.1 | < 0.01 | 0.1 to 1 | 0.01 to 0.1 |
| COc1ccc(OC)c(S(=O)(=O)Nc2ccc(NC(=O)c3cc(N4CCC(=O)NC4=O)cc(C(C)(C)C)c3OC)cc2)c1 [IA-L3-1.121, 3-tert-butyl-N-(4-(2,5-dimethoxyphenylsulfonamido)phenyl)-5-(2,4-dioxotetrahydro-pyrimidin-1(2H)-yl)-2-methoxybenzamide] | 0.1 to 1 | 0.1 to 1 | > 1 | 0.1 to 1 |
| CC(C)CS(=O)(=O)Nc1ccc(NC(=O)c2cc(N3CCC(=O)NC3=O)cc(C(C)(C)C)c2O)cc1 [IA-L3-1.7, 3-tert-butyl-5-(2,4-dioxotetrahydropyrimidin-1(2H)-yl)-2-hydroxy-N-(4-(2-methylpropylsulfonamido)phenyl)benzamide] | 0.1 to 1 | 0.01 to 0.1 | > 1 | > 1 |
| CN(c1ccc(NC(=O)c2cc(N3CCC(=O)NC3=O)cc(C(C)(C)C)c2O)cc1)S(C)(=O)=O [IA-L3-1.4, 3-tert-butyl-5-(2,4-dioxotetrahydropyrimidin-1(2H)-yl)-2-hydroxy-N-(4-(N-methylmethylsulfonamido)phenyl)benzamide] | 0.1 to 1 | 0.01 to 0.1 | > 1 | > 1 |
